Five compounds from ChEMBL document CHEMBL4376863, “Identification of Selective Inhibitors of Plasmodium N-Myristoyltransferase by High-Throughput Screening” (J Med Chem, 2020) can be followed below.

Usually ΔTm stands for the change in melting temperature against a reference sample.

Experiment [1] deals with Plasmodium falciparum. The experiment is described as follows: Antiplasmodial activity against asexual blood stage Plasmodium falciparum 3D7A MR4 infected in human RBCs assessed as decrease in [3H]-hypoxanthine incorporation pretreated for 24 hrs in presence of hypoxanthine followed by [3H]-hypoxanthine addition after 24 hrs by microbeta scintillation counter analysis. The format is functional, organism-based.

The target in experiment [2] is T1, Glycylpeptide N-tetradecanoyltransferase (Plasmodium falciparum (isolate 3D7)) (UniProt Q8ILW6).
T1 sequence (whole entry): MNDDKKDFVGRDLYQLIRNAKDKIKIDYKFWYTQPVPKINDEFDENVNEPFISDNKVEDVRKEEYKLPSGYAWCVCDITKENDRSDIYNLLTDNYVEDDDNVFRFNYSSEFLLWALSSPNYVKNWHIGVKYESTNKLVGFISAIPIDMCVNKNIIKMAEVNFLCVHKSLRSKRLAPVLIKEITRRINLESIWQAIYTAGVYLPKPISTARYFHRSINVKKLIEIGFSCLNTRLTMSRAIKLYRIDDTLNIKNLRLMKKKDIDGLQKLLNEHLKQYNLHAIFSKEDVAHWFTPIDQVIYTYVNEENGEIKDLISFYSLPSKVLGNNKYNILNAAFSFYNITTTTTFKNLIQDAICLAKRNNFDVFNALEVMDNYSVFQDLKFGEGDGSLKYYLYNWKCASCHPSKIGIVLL
The experiment is described as follows: Competitive inhibition of Plasmodium falciparum NMT (27 to 410 residues) expressed in Escherichia coli Rosetta (DE3) using H-GLYVSRLFNRLFQKK-NH2 as substrate.

The target of experiment [3] is T1, Glycylpeptide N-tetradecanoyltransferase (Plasmodium falciparum (isolate 3D7)). Put plainly: Binding affinity to Plasmodium falciparum NMT (27 to 410 residues) expressed in Escherichia coli Rosetta (DE3) assessed as change in melting temperature at 100 uM in presence of 100 uM myristoyl-CoA by Sypro orange dye based differential scanning fluorimetry (reference value: 0 degreeC). (In general: Differential scanning fluorimetry follows unfolding on heating by fluorescence.)

Experiment [4] shares this target. The experiment is described as follows: Binding affinity to Plasmodium falciparum NMT (27 to 410 residues) expressed in Escherichia coli Rosetta (DE3) assessed as change in melting temperature at 100 uM in absence of 100 uM myristoyl-CoA by Sypro orange dye based differential scanning fluorimetry (reference value: 0 degreeC).

Calls of active or inactive are those of the source. The rule behind the calls is not given here.

For the compound `Clc1cccc(O[C@H]2C[C@H](NCc3cnc4[nH]ccc4c3)C2)c1Cl`, in experiment [1], the outcome was inactive. For the same compound, in experiment [2], the inhibition entry is “Active”. For the same compound, the values for the shift in melting temperature (ΔTm) in experiment [3] and in experiment [4] were 6.57 °C and -2.91 °C, respectively.
On to `O=C(c1cccc(NCc2cc(-c3ccc(Cl)cc3)c[nH]c2=O)c1)N1CCOCC1`, for which the result in experiment [1] was inactive. Besides, the inhibition result in experiment [2] is “Active”. Further, the thermal shift (ΔTm) in experiment [3] was 2.16 °C; in experiment [4], -0.3 °C.
For `Cc1ccc(-n2nc(C(=O)N3CCCN(C)CC3)c3ccccc32)cc1`, in that order: “inactive”, “Active”, 6.17 °C and -0.02 °C.
For `O=C(c1ccc2c(c1)N(Cc1ccccc1)C(=O)c1ccccc1[S+]2[O-])N1CCCCC1` (stereo not drawn), in experiment [1], the outcome was inactive. The shift in melting temperature (ΔTm) in experiment [3] is 8.05 °C; in experiment [4], 1.84 °C.
For `CCN(c1ccccc1)S(=O)(=O)c1ccc(Cl)c(C(=O)Nc2ccccc2N2CCCC2=O)c1`, in that order: “inactive”, 7.33 °C and 1.42 °C.
